From US9067894B1, “Compound, composition, and method of activating GIRK potassium channel and use of same for treating conditions of interest” (Vanderbilt University, priority 2013, dated 2015)
Entries after “also recorded” stand apart in the source; their conditions may differ.

Experiments:
[1] = biological target: T1, GIRK2 (Homo sapiens, UniProt P48051); experiment: Thallium flux assay, HEK-293 cells expressing GIRK2 alone; format: cell-based; details: cell line GIRK2
T1 construct: expressed in transfected cells; host or cells: HEK-293
T1 sequence (P48051 1-423): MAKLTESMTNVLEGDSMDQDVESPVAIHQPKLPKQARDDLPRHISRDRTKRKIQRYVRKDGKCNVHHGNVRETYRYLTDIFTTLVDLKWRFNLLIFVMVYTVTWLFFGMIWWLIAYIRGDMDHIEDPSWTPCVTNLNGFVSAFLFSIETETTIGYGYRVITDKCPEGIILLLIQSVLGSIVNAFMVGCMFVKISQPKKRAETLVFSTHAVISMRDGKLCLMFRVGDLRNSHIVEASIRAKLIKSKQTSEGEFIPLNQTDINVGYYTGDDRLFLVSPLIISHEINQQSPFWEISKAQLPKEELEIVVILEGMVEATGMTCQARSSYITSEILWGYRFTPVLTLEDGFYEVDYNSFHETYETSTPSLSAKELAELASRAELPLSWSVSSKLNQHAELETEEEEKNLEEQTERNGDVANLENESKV
Text: Cell Line Construction and Cell Culture. HEK-293 cells co-expressing human GIRK1/2 and rat mGlu8 were generated as previously described (Niswender et al., 2008). A HEK-293 cell line (ATCC, Manassas, Va.) expressing human GIRK1 and human GIRK2 was constructed by transfecting HEK-293 cells with GIRK1 and GIRK2 (Origene, Rockville, Md.) cloned into the pBudCE4.1 vector (Life Technologies, Carlsbad, Calif.) using FuGene 6 (Promega, Madison, Wis.) transfection reagent. Unless otherwise noted, other ion channel-expressing cells were prepared by transfecting HEK-293 cells with individual or combinations of subunits: GIRK1, pCMV6-A-BSD; GIRK2, pCMV6-A-puro; GIRK3, pCMV6-A-hygro; GIRK4, pCMV6-A-AC; Kv7.4, pIRESneo3. The Kir2.1 and hERG-expressing cell lines were made by transfecting T-REx-293 cells (Life Technologies, Carlsbad, Calif.) with Kir2.1 and Kv11.1, respectively, cloned into pcDNA5TO. Monoclonal cell lines were produced by limiting-dilution cloning of antibiotic-resistant cells and functional selection using the thallium flux assay described below. Unless otherwise noted, cells were maintained in Minimal Essential Medium, Alpha Medium (Mediatech, Manassas, Va.) supplemented with 10% fetal bovine serum (Sigma-Aldrich, Saint Louis, Mo.) and GlutaGro (Mediatech, Manassas, Va.), referred to henceforth as cell culture medium. […]

[2] = biological target: T1, GIRK2; experiment: Whole-cell voltage-clamp, GIRK2-expressing HEK-293 cells; format: cell-based; details: cell line GIRK2
Text: Cell Line Construction and Cell Culture. HEK-293 cells co-expressing human GIRK1/2 and rat mGlu8 were generated as previously described (Niswender et al., 2008). A HEK-293 cell line (ATCC, Manassas, Va.) expressing human GIRK1 and human GIRK2 was constructed by transfecting HEK-293 cells with GIRK1 and GIRK2 (Origene, Rockville, Md.) cloned into the pBudCE4.1 vector (Life Technologies, Carlsbad, Calif.) using FuGene 6 (Promega, Madison, Wis.) transfection reagent. […]
A single-cell suspension of HEK-293 cells stably transfected with the appropriate ion channels were plated into TC-treated 35 mm polystyrene dishes at ˜15% confluence and incubated overnight in a 5% CO2 cell culture incubator at 37° C. […] Whole cell currents were recorded in 20K extracellular solution at −70 mV using a Pico 1 amplifier (Tecella, Foothill Ranch, Calif.) controlled by WINWCP 4.X (University of Strathclyde, Glasgow, Scotland, UK). […] One day after transfection, cells were plate into 35 mm polystyrene dishes, incubated and recorded as described above. […]
Voltage-clamp data were analyzed by converting current amplitudes to current density by dividing by each cell's membrane capacitance estimated from capacitance compensation. […]

Cc1cc(NC(=O)Nc2ccc(F)c(F)c2)n(-c2ccccc2)n1 [VU0456810, 1-(3,4-difluorophenyl)-3-(3-methyl-1-phenyl-1H-pyrazol-5-yl)urea]
EC50 Thallium Flux [1]: complete inability to modulate; also recorded: Inactive | EC50 Thallium Flux ([1]; listed as 2): inactive | EC50 Voltage Clamp [2]: Inactive
